Test systems include EKVX; OVCAR-4; OVCAR-8; RPMI-8226; CAKI-1; DU-145; HOP-62; MDA-MB-231; NCI-H522; A549; Hs-578T; SR; OVCAR-3; PC-3; K562; SF-539; SK-MEL-2; RXF 393; HT-29; HCC 2998.
Holding throughout (experiment): growth of human tumour cells (NCI), 48 h

Molecules are shown by their SMILES. Several values for one entry are separate records, joined by “and”; a condition that tells them apart may be missing. Equal entries are not always repeated.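 Exposure lasted 48 hours, with cells grown in 96-well plates and compounds tested at five concentrations. GI50 marks 50% less growth.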 Activity calls are given as the source filed them. No stated cut-off is given here; in the data, active = GI50 up to about 1.1 µM and inactive = higher. Where only a bound is given, the exact number is not on record here.

Turning to `O=C(O)c1ccc(C(O)(c2ccccc2)c2ccccc2)cc1`, the GI50 in the assay on EKVX, in the assay on OVCAR-4, in the assay on OVCAR-8, with RPMI-8226, in the assay on CAKI-1 and in the assay with DU-145 was > 100 µM (inactive) throughout. The GI50 in the assay with HOP-62, with MDA-MB-231, with NCI-H522, in the assay on A549, in the assay on Hs-578T and with SR was > 100 µM (inactive) in each case. Moreover, the GI50 in the assay on OVCAR-3, with PC-3 and with K562 was > 100 µM (inactive) in each case.
Turning to `COc1ccc([C@@]23Oc4cc(OC)cc(OC)c4[C@]2(O)[C@H](O)[C@H](C(N)=O)[C@H]3c2ccccc2)cc1` [DIDESMETHYLROCAGLAMIDE], the GI50 in the assay on SF-539 was < 0.01 µM (active); in the assay with EKVX it was < 0.0106 µM (active); in the assay with OVCAR-4, < 0.0126 µM (active); in the assay on SK-MEL-2 it was < 0.0106 µM (active); in the assay with OVCAR-8, < 0.01 µM (active); in the assay on RPMI-8226 it was < 0.01 µM (active). For the same molecule, the GI50 in the assay on CAKI-1 is < 0.0164 µM (active); with DU-145 it was < 0.01 µM (active); in the assay with HOP-62 it was < 0.01 µM (active); in the assay on MDA-MB-231, < 0.0108 µM (active); in the assay with NCI-H522, < 0.01 µM (active); in the assay with A549 it was < 0.01 µM (active). For the same molecule, the GI50 with Hs-578T, with RXF 393, with OVCAR-3, in the assay on PC-3, in the assay on K562 and in the assay with HT-29 was < 0.01 µM (active) throughout. Besides, the GI50 in the assay on HCC 2998 was < 0.01 µM (active).
For the molecule `NC1=NC(=O)/C(=C2\CCNC(=O)c3[nH]c(Br)cc32)N1` [HYMENIALDISINE], the GI50 with EKVX was > 100 µM (inactive) and > 71.3 µM (inactive); with OVCAR-4, 15.3 µM (inactive) and 17.5 µM (inactive); in the assay with OVCAR-8 it was 7.21 µM (inactive) and 10.5 µM (inactive); with DU-145 it was 39.6 µM (inactive); in the assay on HOP-62, 40.8 µM (inactive) and 31.9 µM (inactive); in the assay with MDA-MB-231, 4.66 µM (inactive). The GI50 in the assay on A549 is > 70.3 µM (inactive); in the assay on Hs-578T it was 38.6 µM (inactive); with SR it was 0.303 µM (active); in the assay on RXF 393 it was 29.7 µM (inactive) and 34.6 µM (inactive); in the assay on PC-3, 56.6 µM (inactive); with K562, 3.85 µM (inactive) and 4.1 µM (inactive). Moreover, the GI50 in the assay on HCC 2998 is 57.9 µM (inactive) and 55.3 µM (inactive).
On to `N#CC[N+]1(Cc2ccccn2)CCCC1.O=S(=O)([O-])c1ccccc1`, for which the GI50 with SF-539, in the assay on EKVX, with OVCAR-4, in the assay with SK-MEL-2, in the assay on OVCAR-8 and in the assay on RPMI-8226 was > 100 µM (inactive) throughout. Besides, the GI50 in the assay with CAKI-1, with DU-145, in the assay with HOP-62, with MDA-MB-231, in the assay with NCI-H522 and in the assay with A549 was > 100 µM (inactive) throughout. Further, the GI50 in the assay with Hs-578T, in the assay on RXF 393, with OVCAR-3, in the assay on PC-3, with K562 and in the assay with HT-29 was > 100 µM (inactive) each time. In addition, the GI50 with HCC 2998 is > 100 µM (inactive).
Regarding `[O-]c1c[n+](CCCC[n+]2cc([O-])on2)no1`, the GI50 in the assay on SF-539, with EKVX, in the assay with OVCAR-4, with SK-MEL-2, in the assay on OVCAR-8 and in the assay on RPMI-8226 was > 100 µM (inactive) throughout. The GI50 in the assay with CAKI-1, with DU-145, in the assay on HOP-62, in the assay with MDA-MB-231, in the assay on NCI-H522 and with A549 was > 100 µM (inactive) in each case. Also, the GI50 in the assay with Hs-578T, with RXF 393, with OVCAR-3, in the assay with PC-3, in the assay with K562 and with HT-29 was > 100 µM (inactive) throughout. Also, the GI50 in the assay with HCC 2998 was > 100 µM (inactive).
Regarding `CSc1nnc(SC)nn1`, the GI50 was 18.2 µM (inactive) in the assay with SF-539; 16.6 µM (inactive) in the assay with EKVX; 18.5 µM (inactive) with OVCAR-4; 18.6 µM (inactive) with OVCAR-8; 13.3 µM (inactive) with RPMI-8226; 16.9 µM (inactive) with CAKI-1. Besides, the GI50 with DU-145 is 20.4 µM (inactive); in the assay with HOP-62, 15.3 µM (inactive); in the assay on MDA-MB-231, 18.2 µM (inactive); in the assay on NCI-H522, 16.4 µM (inactive); in the assay on A549, 20.9 µM (inactive); in the assay on Hs-578T, 27.2 µM (inactive). Further, the GI50 in the assay with RXF 393 was 16.7 µM (inactive); in the assay with OVCAR-3, 16.2 µM (inactive); in the assay with PC-3, 18.5 µM (inactive); in the assay with K562 it was 8.04 µM (inactive); in the assay with HT-29 it was 18.9 µM (inactive).
`Nc1ccc2nc3ccc(=O)cc-3n(-c3ccccc3)c2c1`: the GI50 in the assay with SF-539 is 31.6 µM (inactive); in the assay with EKVX, > 100 µM (inactive); with OVCAR-4, > 100 µM (inactive); in the assay on SK-MEL-2, > 100 µM (inactive); in the assay with OVCAR-8, > 100 µM (inactive); in the assay on RPMI-8226, 39.5 µM (inactive). The GI50 is > 100 µM (inactive) in the assay on DU-145; 30.5 µM (inactive) with HOP-62; 38.7 µM (inactive) in the assay with MDA-MB-231; 38.1 µM (inactive) with NCI-H522; > 100 µM (inactive) in the assay with A549; 75.9 µM (inactive) in the assay with Hs-578T. Moreover, the GI50 in the assay on RXF 393 is 59.8 µM (inactive); in the assay with OVCAR-3, 31.8 µM (inactive); with PC-3, 91.4 µM (inactive); in the assay on K562 it was > 100 µM (inactive); in the assay on HT-29, > 100 µM (inactive); in the assay on HCC 2998 it was > 100 µM (inactive).
In the case of `Cc1ncc(CO)c(CN)c1O`, the GI50 in the assay on SF-539, with EKVX, in the assay on OVCAR-4, in the assay on SK-MEL-2, in the assay with OVCAR-8 and with RPMI-8226 was > 100 µM (inactive) throughout. Also, the GI50 in the assay on CAKI-1, in the assay on DU-145, in the assay with HOP-62, in the assay on MDA-MB-231, in the assay with NCI-H522 and with A549 was > 100 µM (inactive) throughout. Further, the GI50 in the assay with Hs-578T, with RXF 393, in the assay with OVCAR-3, in the assay on PC-3, in the assay on K562 and with HT-29 was > 100 µM (inactive) in each case. For the same molecule, the GI50 with HCC 2998 was > 100 µM (inactive).

For the origin of these results see ChEMBL document CHEMBL1201862, “PubChem BioAssay data set” (2004).
